Format in all cases: cell-based, human
Test [1] concerns Huh7 cells. Put plainly: MTT assay of cell proliferation and viability, Huh7. Conditions: ATP 100 μM, 18 h. The method, then: (§1) Normal human primary hepatocytes isolated from healthy adults (no known history of HCC) in suspension or freshly-frozen prior to shipment (Cryoport Systems, CA) were purchased from Triangle Research Labs, NC. Fresh hepatocytes were plated on collagen-coated tissue culture plates or glass coverslips in Williams E complete media with additives (10% fetal bovine serum, 2 mM glutamine, […] insulin, 4 ng/ml glucagon, […] transferrin, 2.5 ng/ml sodium selenite, 10,000 U/ml penicillin, […] streptomycin, 50 g/ml gentamycin) for 3 h to ensure hepatocyte adherence to plates. Subsequently, hepatocytes were maintained in Williams E minimal media free from serum and growth factors for 24 h prior to treatment. Human hepatocellular carcinoma derived Huh7, and Hep3B, were cultured in Minimum Essential Medium Eagle (MEM); SNU-387 was cultured in Roswell Park Memorial Institute (RPMI) medium and PLC/PRF/5 cultured in Dulbecco's Modified Eagle's medium (DMEM). All maintenance culture media were supplemented with 10% fetal bovine serum (FBS), L-Glutamine (2 mM), penicillin (100 units/ml) and streptomycin ([…]) at 37° C. and 5% CO2. […]
(§2) Cell viability was determined using the 3-(4, 5-dimethylthiazol-2-yl)-2,5-diphenyltetrazolium (MTT, Sigma) assays. […] After shaking the plates for 30 min, the absorbance at 570 nm was measured (background subtraction at […]).
A general note: Tetrazolium assays rely on reduction of a dye to a coloured formazan, in cell work by metabolically active cells.

The next test relates to SNU-387 cells. Put plainly: Western blotting of cyclin D3 in SNU-387 cells. To be noted: ATP 24 hours, serum-free. The method, then:
HCC cells (Huh7, Hep3B, SNU-387, and PLC/PRF/5) maintained in serum-free conditions were treated with ATP for 24 hours and total protein extracts were analyzed by Western blotting for cyclin D3 expression. The α-tubulin was utilized as the protein loading control. Data represents mean±SD, n=3-6, *p<0.05 vs untreated (un).
Normal human primary hepatocytes isolated from healthy adults (no known history of HCC) in suspension or freshly-frozen prior to shipment (Cryoport Systems, CA) were purchased from Triangle Research Labs, NC. […]
Total protein extracts were obtained by homogenizing cells in total lysis buffer (50 mM Tris-HCl, pH 7.5, 0.5 M NaCl, 2 mM EGTA, 2 mM EDTA, 1.0% Triton X-100, 0.25% Deoxycholate, 1 m/ml pepstatin, 1.0 m/ml leupeptin, 1.0 m/ml aprotinin, 1.0 mM phenylmethylsulfonyl fluoride, 1.0 mM Dithiothreitol, 2.0 mM activated Na3VO4, and 2.0 mM NaF) and centrifuging at 14,000 rpm for 10 min (4° C.). Equal amounts of total proteins as determined by BCA protein Assay (Pierce, Rockford, Ill.) were analyzed by Western blotting. […]

The test system of the next test is PLC/PRF/5 cells. Briefly: MTT assay of cell proliferation and viability, PLC/PRF/5. To be noted: ATP 100 μM, 18 h. The method, then:
as §1, §2

Test [2] concerns Huh7 cells. Briefly: qRT-PCR of cyclin mRNA in Huh7 cells. To be noted: 6 h treatment. The method, then: Normal human primary hepatocytes isolated from healthy adults (no known history of HCC) in suspension or freshly-frozen prior to shipment (Cryoport Systems, CA) were purchased from Triangle Research Labs, NC. Fresh hepatocytes were plated on collagen-coated tissue culture plates or glass coverslips in Williams E complete media with additives (10% fetal bovine serum, 2 mM glutamine, […] insulin, 4 ng/ml glucagon, […] transferrin, 2.5 ng/ml sodium selenite, 10,000 U/ml penicillin, […] streptomycin, 50 g/ml gentamycin) for 3 h to ensure hepatocyte adherence to plates. Subsequently, hepatocytes were maintained in Williams E minimal media free from serum and growth factors for 24 h prior to treatment. Human hepatocellular carcinoma derived Huh7, and Hep3B, were cultured in Minimum Essential Medium Eagle (MEM); SNU-387 was cultured in Roswell Park Memorial Institute (RPMI) medium and PLC/PRF/5 cultured in Dulbecco's Modified Eagle's medium (DMEM). All maintenance culture media were supplemented with 10% fetal bovine serum (FBS), L-Glutamine (2 mM), penicillin (100 units/ml) and streptomycin ([…]) at 37° C. and 5% CO2. Cells were maintained in serum free media (containing 2 mM L-Glutamine, 100 units/ml penicillin and ([…])) streptomycin for 24 h prior to treatment. Total RNA was isolated from human livers or cells using Trizol Reagent according to manufacturer's instructions (Invitrogen, NY). Complementary DNA (cDNA) synthesis was performed by reverse transcription of total RNA (2 μg) with high capacity cDNA reverse transcription kit (Applied Biosystems, Foster city, CA). The cDNA product was amplified by qRT-PCR in Step One Plus Real-Time PCR system using SYBR Green PCR Master Mix (Applied Biosystems, Grand Island, N.Y.). Quantitative expression values were determined using the […] as specified by manufacturers using GAPDH as a control.
(In general: Real-time PCR tracks product formation cycle by cycle.)

Test [3] concerns Huh7 cells. Briefly: Western blotting for JNK phosphorylation in Huh7 cells. To be noted: 100 μM, 15 min. The method, then:
Applicants have previously shown that extracellular nucleotide-mediated activation of JNK signaling induces cell-cycle progression and proliferation of rat primary hepatocytes in vitro. To determine whether extracellular nucleotides induce JNK signaling in transformed hepatocytes, Huh7 cells were treated with nucleotides for 5, 15 and 30 min and total protein extracts were analyzed by Western blotting for JNK phosphorylation (Ser^Thr/Tyi). ATPγS treatment alone was sufficient to induce JNK phosphorylation as early as 15 min (1.7 fold) (FIG. 10A). […] Total protein extracts were obtained by homogenizing cells in total lysis buffer (50 mM Tris-HCl, pH 7.5, 0.5 M NaCl, 2 mM EGTA, 2 mM EDTA, 1.0% Triton X-100, 0.25% Deoxycholate, 1 m/ml pepstatin, 1.0 m/ml leupeptin, 1.0 m/ml aprotinin, 1.0 mM phenylmethylsulfonyl fluoride, 1.0 mM Dithiothreitol, 2.0 mM activated Na3VO4, and 2.0 mM NaF) and centrifuging at 14,000 rpm for 10 min (4° C.). Equal amounts of total proteins as determined by BCA protein Assay (Pierce, Rockford, Ill.) were analyzed by Western blotting. Blots were probed with antibody specific for a-tubulin or GAPDH to ensure equal loading of proteins in each lane.
(In general: Immunoblotting shows a protein as a band on a membrane.)

Molecules are shown by their SMILES.

Data on 2 molecules can be found in patent US20180271863A1, “TARGETING P2 PURINERGIC RECEPTORS TO TREAT HEPATOCELLULAR CARCINOMA (HCC)” (Baylor College of Medicine, priority 2015, published 2018).

As to `Nc1ncnc2c1ncn2[C@@H]1O[C@H](COP(=O)(O)OP(=O)(O)OP(=O)(O)O)[C@@H](O)[C@H]1O` [ATP], the “increase in cell proliferation and viability (MTT)” value with Huh7 cells [1] was determined as 65%; in the test on PLC/PRF/5 cells, 43%. Further, the “cyclin D3 protein expression” value with SNU-387 cells is reported as 1.6 fold.

`Nc1ncnc2c1ncn2[C@@H]1O[C@H](COP(=O)(O)OP(=O)(O)OP(O)(O)=S)[C@@H](O)[C@H]1O` [ATPγS]: in the test on Huh7 cells [2], the “Cyclin D3 mRNA expression vs untreated cells” value is 2.1 fold. Besides, in the test on Huh7 cells [3], the JNK phosphorylation turned out to be 1.7 fold.
